Measurements: patent publication EP4768479A1 (Hubei Bio-Pharmaceutical Industrial Technological Institute …, priority 2023, dated 2025)

How the values were obtained:
[1] = Pharmacokinetic study following single oral gavage administration to cynomolgus monkeys; assay type: in vivo; conditions: cynomolgus monkey, plasma, 5 mg/kg; Monkey PK PO (5 mpk)
Protocol: The compounds were dissolved in a vehicle consisting of 5% DMSO+10% Solutol+85% Saline to a concentration of 1 mg/mL, and administered at a dose of 5 mpk. The animals were weighed before the administration, and the dosing volume was calculated based on the body weight. The compounds were administered to the animals via oral gavage. Blood samples were collected via a femoral vein or other suitable methods at time points of 0.083 hours, 0.25 hours, 0.5 hours, 1 hour, 2 hours, 4 hours, 6 hours, 8 hours, and 24 hours. Approximately 1 mL of each sample was collected at each time point, anticoagulated with sodium heparin, and placed on ice immediately after the collection. After the blood samples were collected, they were placed on ice and centrifuged within 1 hour to separate plasma (centrifugation conditions: 2,200g, 10 minutes, and 2°C to 8°C). The plasma samples were stored in a -80°C refrigerator until analysis.
The bioanalytical method and sample analysis were performed by the Analytical Laboratory of Medicilon Inc. (Shanghai, China). Intra-day accuracy of quality control samples was evaluated concurrently with the sample analysis, requiring that accuracy of more than 66.7% of the quality control samples fell within the range of 80% to 120%. [Table 5] Pharmacokinetics of Compounds in Monkeys

[2] = target: T1, AT2R (Homo sapiens, UniProt P50052); assay: Binding assay of compounds to AT2R (Tag-lite HTRF ligand binding kit)
T1 construct: purchased Cisbio #C1TT1AT2
T1 sequence (P50052 1-363): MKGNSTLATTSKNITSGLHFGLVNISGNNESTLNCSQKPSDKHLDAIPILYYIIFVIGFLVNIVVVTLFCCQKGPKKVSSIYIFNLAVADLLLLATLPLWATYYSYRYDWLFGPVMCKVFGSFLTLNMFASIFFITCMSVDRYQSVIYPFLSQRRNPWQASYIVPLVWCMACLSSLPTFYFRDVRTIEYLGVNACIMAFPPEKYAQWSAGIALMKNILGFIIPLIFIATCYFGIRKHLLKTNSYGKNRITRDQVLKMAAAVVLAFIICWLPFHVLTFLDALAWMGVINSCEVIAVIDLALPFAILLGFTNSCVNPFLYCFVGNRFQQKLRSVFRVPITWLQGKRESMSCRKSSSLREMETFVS
Protocol: The assay was performed in accordance with the manufacturer instructions of Angiotensin AT2 Receptor Ligand Binding Assay Kit (#C1TT1AT2, Cisbio). First, a 10 mM compound stock solution was diluted in a gradient at a 5× dilution ratio (including 10 concentrations, each with two replicates). 160 nL of compounds at different concentrations was added to a 384-well plate. 40 µL of 1× TLB (TLB: Tag-lite buffer) was added to each well, and the mixture was shaken at room temperature for 15 minutes. A 15 mL centrifuge tube added with 5 mL of 1×TLB was prepared in advance. The frozen labeled cells were thawed in a water bath at 37°C (for 1 to 2 minutes), and the thawed cells were quickly transferred to the above 15 mL centrifuge tube. The mixture was mixed well and centrifuged at 1,000 g at room temperature for 5 minutes. The supernatant was removed, and the cells were resuspended by adding 2.7 mL 1× TLB. A new 384-well plate was taken, and 10 µL of mixed cells were added into the corresponding wells according to the assay design. 5 µL of 4× compound solution and 5 µL of 4× Tag-lite red fluorescent labeled ligand were added to each well. After incubation at room temperature for 1 hour, data were read using EnVision with an HTRF mode. The […] at 665nM and 615nM in each well were read respectively, and the ratio was calculated (Ratio=A665nM/B615nM). The IC50 value was calculated by means of GraphPad Prism8 software, where X represents logarithmic value of compound concentration; and Y represents ratio of A665nM/B615nM.

[3] = Liver microsomal stability assay; assay type: in vitro ADME; conditions: human liver microsomes, NADPH, 37°C; read-out: T1/2 (min) Human
Protocol: The human liver microsome stability assay was performed by co-incubating the compound with human liver microsomes in vitro. The test compounds were first prepared as 10 mM stock solutions in DMSO solvent, and then diluted to 0.5 mM with acetonitrile. Human liver microsomes (Corning) were diluted with PBS to prepare a microsome/buffer solution, and this solution was used to dilute 0.5 mM of the compound to prepare a working solution. In the working solution, a concentration of the compound was 1.5 µM and a concentration of the human liver microsome was 0.75 mg/mL. A deep-well plate was taken, 30 µL of working solution was added to each well of the plate, and then 15 µL of pre-heated NADPH solution (6 mM) was added to start the reaction. The mixture was incubated at 37°C. 135 µL of acetonitrile was added to the corresponding wells to stop the reaction at 0 minute, 5 minutes, 15 minutes, 30 minutes, and 45 minutes of incubation. Subsequent to the stop of the reaction by means of acetonitrile at the last time point of 45 minutes, the plate was vortexed for 10 minutes (600 rpm/min) and then centrifuged for 15 minutes. After the centrifugation, the supernatant was taken, and purified water was added in a 1:1 ratio for LC-MS/MS detection. The ratio of a peak area of the compound to a peak area of the internal standard at individual time points was obtained. The peak area ratios of the compound at 5 minutes, 15 minutes, 30 minutes, and 45 minutes were compared with the peak area ratio at 0 minute, and the remaining percentage of the compound at each time point was calculated. T1/2 was calculated using Graphpad8 software. [Table 3] Liver Microsomal Stability of Compounds

Compound `COC(=O)NS(=O)(=O)c1sc(CC(C)C)c(C)c1-c1ccc(Cn2ccnc2C(F)(F)F)cc1` [Compound I-9, Methyl ((5-isobutyl-4-methyl-3-(4-((2-(trifluoromethyl)-1H-imidazol-1-yl)methyl)phenyl)thiophen-2-yl)sulfonyl)carbamate] has an AUC(0-t) [1] of 7790 ng·h/mL, a Cmax [1] of 5310 ng/mL and an IC50 [2] of 5.13 nM. For the same compound, the half-life at 1 µM [3] was 50.2 min.

In the case of `Cc1c(CC(C)C)sc(S(=O)(=O)NC(=O)OCC(C)(C)O)c1-c1ccc(Cn2ccnc2C(F)(F)F)cc1` [Compound I-10, 2-hydroxy-2-methylpropyl ((5-isobutyl-4-methyl-3-(4-((2-(trifluoromethyl)-1H-imidazol-1-yl)methyl)phenyl)thiophen-2-yl)sulfonyl)carbamate], the AUC(0-t) [1] is reported as 5570 ng·h/mL, the Cmax [1] is reported as 3560 ng/mL and the IC50 [2] is reported as 2.31 nM. It also gave a half-life at 1 µM [3] of 83.2 min.

Compound `Cc1c(CC(C)C)sc(S(=O)(=O)NC(=O)OCCO)c1-c1ccc(Cn2ccnc2C(F)(F)F)cc1` [Compound I-13, 2-hydroxyethyl ((5-isobutyl-4-methyl-3-(4-((2-(trifluoromethyl)-1H-imidazol-1-yl)methyl)phenyl)thiophen-2-yl)sulfonyl)carbamate] has an IC50 [2] of 2.6 nM and a half-life at 1 µM [3] of 46.4 min.

`COC(=O)NS(=O)(=O)c1sc(CC(C)C)c(C)c1-c1ccc(Cn2ccnc2Cl)c(F)c1` [Compound I-14, Methyl ((3-(4-((2-chloro-1H-imidazol-1-yl)methyl)-3-fluorophenyl)-5-isobutyl-4-methylthiophen-2-yl)sulfonyl)carbamate] showed an AUC(0-t) [1] of 7350 ng·h/mL, a Cmax [1] of 5040 ng/mL and an IC50 [2] of 1.39 nM. It also gave a half-life at 1 µM [3] of 45 min.

`COC(=O)NS(=O)(=O)c1sc(CC(C)C)c(C)c1-c1ccc(Cn2ccnc2C(C)(C)O)cc1` [Compound I-19, Methyl ((3-(4-((2-(2-hydroxypropan-2-yl)-1H-imidazol-1-yl)methyl)phenyl)-5-isobutyl-4-methylthiophen-2-yl)sulfonyl)carbamate] showed an AUC(0-t) [1] of 6820 ng·h/mL, a Cmax [1] of 4030 ng/mL and an IC50 [2] of 2.91 nM. The half-life at 1 µM [3] was 71.2 min.

For `Cc1c(CC(C)C)sc(S(=O)(=O)Nc2ncccn2)c1-c1ccc(Cn2ccnc2Cl)cc1` [Compound I-23, 3-(4-((2-chloro-1H-imidazol-1-yl)methyl)phenyl)-5-isobutyl-4-methyl-N-(pyrimidin-2-yl)thiophene-2-sulfonamide], the IC50 [2] was 1.79 nM and the half-life at 1 µM [3] was 39.3 min.

Compound `CCCCOC(=O)NS(=O)(=O)c1sc(CC(C)C)cc1-c1ccc(Cn2ccnc2)cc1` [Control Compound I, reference compound] has an AUC(0-t) [1] of 4920 ng·h/mL, a Cmax [1] of 1320 ng/mL and a half-life at 1 µM [3] of 9.13 min.
